In US20070167462A1, “Fungicidal mixtures” (priority 2004, published 2007):

Test system: Corticium sasakii
Assay: Activity against sheath blight on rice caused by Corticium sasakii (protective spray, rice plants cultivar Tai-Nong 67)
Type: in vivo
Settings: untreated control 90% infection
Protocol: The active compounds, separately or jointly, were prepared as a stock solution comprising 0.25% by weight of active compound in acetone or DMSO. 1% by weight of the emulsifier Uniperol® EL (wetting agent having emulsifying and dispersing action based on ethoxylated alkylphenols) was added to this solution, and the mixture was diluted with water accordingly to the desired concentration.
Use example—Activity against sheath blight on rice caused by Corticium sasakii
Pots of rice plants of the cultivar “Tai-Nong 67” were sprayed to runoff point with an aqueous suspension having the concentration of active compound stated below. The next day, oat grains infected with Corticium sasakii were planted in the pots (in each case 5 grains per pot). The plants were then placed in a chamber at 26° C. and maximum atmospheric humidity. After […], the sheath blight on the untreated but infected control plants had developed to such an extent that the infection could be determined visually in %.
Evaluation is carried out by determining the infected leaf areas in percent. These percentages were converted into efficacies.
The efficacy (E) is calculated as follows using Abbot's formula: E=(1−αβ)·100 • α corresponds to the fungal infection of the treated plants in % and • β corresponds to the fungal infection of the untreated (control) plants in %
An efficacy of 0 means that the infection level of the treated plants corresponds to that of the untreated control plants; an efficacy of 100 means that the treated plants are not infected.
The expected efficacies of the mixtures of active compounds are determined using Colby's formula [R. S. Colby, Weeds, 15, 20-22 (1967)] and are compared with the observed efficacies.
Colby's formula: E=x+y−x·y/100 • E expected efficacy, expressed in % of the untreated control, when using the mixture of the active compounds A and B at the concentrations a and b • x efficacy, expressed in % of the untreated control, when using the active compound A at the concentration a
y efficacy, expressed in % of the untreated control, when using the active compound B at the concentration b

[1] = 4 ppm active compound in the spray liquor
[2] = 16 ppm active compound in the spray liquor

Structure (SMILES) | Efficacy in % of the untreated control [1] [%] | Efficacy in % of the untreated control [2] [%]
CC1CCN(c2c(-c3c(F)cc(F)cc3F)c(Cl)nc3ncnn23)CC1 [compound I, 5-chloro-7-(4-methylpiperidin-1-yl)-6-(2,4,6-trifluorophenyl)-[1,2,4]tri-azolo[1,5-a]pyrimidine] | 31 | 65
CC(C)Oc1cccc(NC(=O)c2ccccc2C(F)(F)F)c1 [II (flutolanil), N-(3-isopropoxyphenyl)-2-trifluoromethylbenzamide] | 0 | 31
